# Where two headings read alike, the source gives them in different places.
# Experiments:
# L. reuteri DSM 17686 [1] = assay: MIC on MRS plates containing lincomycin or clindamycin; format: cell-based, Lactobacillus reuteri; details: 37° C., 24 h
# Protocol: (§1) The bacteria were grown in MRS broth for 16 h at 37° C. […] After adsorption of the drops, the plates were incubated in anaerobic atmosphere at 37° C. for 24 h. The MIC was defined as the lowest antibiotic concentration for which there was no visible bacterial growth.
# L. reuteri DSM 20016 = assay: as above; format: cell-based, Lactobacillus reuteri; details: Limosilactobacillus reuteri, DSM20016, strain DSM 20016 (negative control), anaerobic, 37° C., 24 h
# Protocol: as §1
# L. reuteri ATCC 55730 [2] = assay: as above; format: cell-based, Lactobacillus reuteri; details: Limosilactobacillus reuteri, ATCC55730, strain ATCC 55730, anaerobic, 37° C., 24 h
# Protocol: as §1
# L. reuteri DSM 17938 [3] = assay: as above; format: cell-based, Lactobacillus reuteri; details: strain DSM 17938, anaerobic, 37° C.
# Protocol: as §1
# 1063 = assay: as above; format: cell-based; details: strain 1063, anaerobic, 37° C., 24 h
# Protocol: as §1
# L. reuteri DSM 17686 [4] = assay: MIC to tetracycline with Etest; format: cell-based, Lactobacillus reuteri; details: strain DSM 17686; MRS agar
# Protocol: (§2) The bacteria were grown in MRS broth for 16 h at 37° C. After dilution to 10^5 cfu ml^−1, 1 μl of each bacterial strain was spotted on MRS plates containing lincomycin or clindamycin (concentrations 0, 0.125, 0.25, 0.5, 1, 2, 4, 8 and 16 μg ml^−1). After adsorption of the drops, the plates were incubated in anaerobic atmosphere at 37° C. for 24 h. The MIC was defined as the lowest antibiotic concentration for which there was no visible bacterial growth. MICs to tetracycline were tested with Etest (AB Biodisk) on bacteria growing on MRS agar (Oxoid) plates according to the instructions from the manufacturer.
# L. reuteri ATCC 55730 [5] = assay: MIC to tetracycline with Etest; format: cell-based, Lactobacillus reuteri; details: Limosilactobacillus reuteri, ATCC55730; strain ATCC 55730; MRS agar; read-out: MIC to tetracycline (E-test)
# Protocol: as §2
# L. reuteri DSM 17938 [6] = assay: MIC to tetracycline with Etest; format: cell-based, Lactobacillus reuteri; details: strain DSM 17938; MRS agar
# Protocol: as §2
# [7] = Limosilactobacillus reuteri, DSM17686, strain DSM 17686, anaerobic, read-out: MIC
# [8] = Limosilactobacillus reuteri, DSM17938, 24 h, read-out: MIC
MIC (L. reuteri DSM 17686 [1]; [7]),MIC (L. reuteri DSM 20016),MIC (L. reuteri ATCC 55730 [2]),MIC (L. reuteri DSM 17938 [3]; [8]),MIC 1063,"MIC (L. reuteri DSM 17686 [1]; strain DSM 17686, anaerobic)",MIC (L. reuteri DSM 17938 [3]; 24 h),SMILES,MIC to tetracycline (E-test) (L. reuteri DSM 17686 [4]),MIC (L. reuteri ATCC 55730 [5]),MIC to tetracycline (E-test) (L. reuteri DSM 17938 [6])
< 0.125 µg/mL,< 0.125 µg/mL,< 0.125 µg/mL,< 0.125 µg/mL,> 16 µg/mL,,,CCC[C@@H]1C[C@@H](C(=O)N[C@@H]([C@H]2O[C@H](SC)[C@H](O)[C@@H](O)[C@H]2O)[C@H](C)Cl)N(C)C1 [clindamycin],,,
> 16 µg/mL,0.25 µg/mL,> 16 µg/mL,0.25 µg/mL,> 16 µg/mL,>16 µg/mL,0.5 µg/mL,CCC[C@@H]1C[C@@H](C(=O)N[C@@H]([C@H]2O[C@H](SC)[C@H](O)[C@@H](O)[C@H]2O)[C@@H](C)O)N(C)C1 [lincomycin],,,
,,,,,,,CN(C)[C@@H]1C(O)=C(C(N)=O)C(=O)[C@@]2(O)C(O)=C3C(=O)c4c(O)cccc4[C@@](C)(O)[C@H]3C[C@@H]12 [tetracycline],12-16 μml-1,> 256 µg/mL,12-16 μml-1
